This note sets out measurements from patent publication US9890138B2, “Diaminopyrimidine derivatives and processes for the preparation thereof” (YUHAN CORPORATION, priority 2011, dated 2018).

The assay concerns the target T1, human 5-HT4(a) (Homo sapiens, UniProt Q13639).
T1 construct: host or cells: GeneBlAzer HTR4-CRE-bla CHO-K1 cells
The experiment in a line: Evaluation of agonistic activity in CHO-K1 cells expressing human 5-HT4(a) (GeneBlAzer HTR4-CRE-bla CHO-K1, beta-lactamase reporter). It counts as cell-based. The settings on record: CHO-K1 cells stably expressing human 5-HT4(a). Here is the method:
Test Example 1: Evaluation of Agonistic Activity in CHO-K1 Cells Expressing Human 5-HT4(a)
As CHO-K1 cells stably expressing human 5-HT4(a), we used the GeneBlAzer HTR4-CRE-bla CHO-K1 cells (Invitrogen Corp.). The cells were cultured, under the condition of 37[…] and 5% CO2, in a DMEM supplemented with 10% fetal bovine serum (FBS), 25 mM HEPES (pH7.4), 600 μg/ml hygromycin B, 0.1 mM non-essential amino acids, 100 unit/ml penicillin and 100 μg/ml streptomycin. Subcultures were performed three times per one week, each being at less than 80% confluence. At the previous day before treating test compounds, the cells were collected using 0.5% trypsin/EDTA and then diluted with a DMEM supplemented with 1% FBS, 25 mM HEPES, and 0.1 mM non-essential amino acids into 3.125×10^5 cells/ml. 32 μl of the diluted cells were added into 384-well plate (10^4 cells per well) and then incubated overnight. After the overnight culture, 8 μl of the medium having 1% of DMSO was added into the cell-free control well and the non-stimulating control well, respectively. 8 μl of the respective test compound dilutions (which had been prepared by diluting by 100-times with the medium as mentioned in the above) having 1% of DMSO were added to the respective remaining wells. After being cultured in the incubator for 5 hours, the wells of the 384-plate were treated with the substrate solution (8 μl per well) prepared according to the vendor's instruction (i.e., Invitrogen's instruction), and then incubated in the dark room for additional two hours. Agonistic activities on 5-HT4 receptor were evaluated, on the basis of fluorescence values of the cleavage-products by beta-lactamase. After exciting to 410 nm of wavelength using a fluorescence detector (Genios Pro), we measured the fluorescence values at two emission wavelengths (first wavelength: 465 nm, second wavelength: 535 nm). Data were analyzed on the basis of the ratio of fluorescence intensities of each well at the respective wavelengths. Each EC50 value was calculated by non-linear regression analysis using the “GraphPad Prism” program, based on the activities according to 8-different concentrations of the test compounds.

pEC50: −log10 of the molar value. Structures can show the parent of a compound that is named as a salt.

The term pEC50 denotes −log10 of the EC50, conventionally taken in molar units. Read a low pEC50 as a large EC50.

T1 sequence (Q13639 1-387 isoform Q13639-2): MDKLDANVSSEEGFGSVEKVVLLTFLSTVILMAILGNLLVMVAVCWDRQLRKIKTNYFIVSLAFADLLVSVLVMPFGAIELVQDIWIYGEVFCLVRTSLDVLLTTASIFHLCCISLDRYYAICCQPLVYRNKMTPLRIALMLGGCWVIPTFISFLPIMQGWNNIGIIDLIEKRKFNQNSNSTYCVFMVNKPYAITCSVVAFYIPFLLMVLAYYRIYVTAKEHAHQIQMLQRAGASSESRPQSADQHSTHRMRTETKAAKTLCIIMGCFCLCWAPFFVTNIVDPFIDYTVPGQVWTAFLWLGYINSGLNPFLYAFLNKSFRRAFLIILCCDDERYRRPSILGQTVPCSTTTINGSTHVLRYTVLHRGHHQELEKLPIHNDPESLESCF

As to `CCCc1cc(N2CCC(NC(C)=O)C2)nc(Nc2cccc([N+](=O)[O-])c2)n1` (stereo not drawn) [Example 295, N-{1-[2-(3-nitrophenylamino)-6-propylpyrimidin-4-yl]pyrrolidin-3-yl}acetamide], the pEC50 was 10.32.
Take `CCCc1cc(N2CCC(NC)C2)nc(Nc2cccc(C#N)c2)n1` (stereo not drawn) [Example 59, 3-{4-[3-(methylamino)pyrrolidin-1-yl]-6-propylpyrimidin-2-ylamino}benzonitrile dihydrochloride]: the pEC50 is 10.55.
Compound `CCCc1cc(N2CCC[C@H]2C)nc(Nc2cccc([N+](=O)[O-])c2)n1` [Example 319] showed a pEC50 of 10.10.
`CCCc1cc(N2CC[C@H](NC(C)C)C2)nc(Nc2ccc(C)c(C#N)c2)n1` [Example 418, (S)-5-{4-[3-(isopropylamino)pyrrolidin-1-yl]-6-propylpyrimidin-2-ylamino]-2-methylbenzonitrile]: the pEC50 is 11.66.
As to `CCCc1cc(N2CC[C@H](NC3CCCCC3)C2)nc(Nc2ccc(C)c(C#N)c2)n1` [Example 421], the pEC50 was 11.10.
Turning to `CCCc1cc(N2CCC[C@H]2C)nc(Nc2ccc3cc[nH]c3c2)n1` [Example 315], the pEC50 is 10.55.
`CCCCc1cc(N2CC[C@H](NC)C2)nc(Nc2ccc(Cl)c(N)c2)n1` [Example 457] had a pEC50 of 11.52.
Next, `CCCc1cc(N2CC[C@H](NC(=O)C3CCCC3)C2)nc(Nc2cccc(C#N)c2)n1` [Example 62, (S)-N-{1-[2-(3-cyanophenylamino)-6-propylpyrimidin-4-yl]pyrrolidin-3-yl}cyclopentanecarboxamide]: 9.44; `CCCc1cc(N2CC[C@H](NC(=O)CC)C2)nc(Nc2ccc(C)c(C#N)c2)n1` [Example 425]: 10.25.
Next, `CCCc1cc(N2CC[C@H](N)C2)nc(Nc2ccc(F)c([N+](=O)[O-])c2)n1` [Example 358, (S)-4-(3-aminopyrrolidin-1-yl)-N-(4-fluoro-3-nitrophenyl)-6-propylpyrimidin-2-amine dihydrochloride]: 10.85.
Then `CCCc1cc(N2CC[C@H](NC(=O)COC)C2)nc(Nc2cccc(C#N)c2)n1` [Example 75, (S)-N-{1-[2-(3-cyanophenylamino)-6-propylpyrimidin-4-yl]pyrrolidin-3-yl}-2-methoxyacetamide], with 9.66.
Turning to `CCCCc1cc(N2CC[C@H](NCC)C2)nc(Nc2ccc(Cl)c(N)c2)n1` [Example 471], the pEC50 was 11.48.
For the compound “(S)-2-{1-[2-(indolin-6-ylamino)-6-propylpyrimidin-4-yl]pyrrolidin-2-yl}methanol [Example 217]”, the pEC50 was 9.64.
Turning to `CCCCc1cc(N2CC[C@H](NC(C)=O)C2)nc(Nc2ccc(N)c(C(F)(F)F)c2)n1` [Example 441], the pEC50 was 11.02.
In turn, `CCCc1cc(N2CC[C@H](N)C2)nc(Nc2ccc(N)c(C#N)c2)n1` [Example 355] showed a pEC50 of 11.15.
As to `CCCCc1cc(N2CC[C@H](NC)C2)nc(Nc2cc(N)cc(C(F)(F)F)c2)n1` [Example 452], the pEC50 is 11.48.
`CCCc1cc(N2CC[C@H](N)C2)nc(Nc2ccc(Cl)c([N+](=O)[O-])c2)n1` [Example 344, (S)-4-(3-aminopyrrolidin-1-yl)-N-(4-chloro-3-nitrophenyl)-6-propylpyrimidin-2-amine dihydrochloride] showed a negative logarithm of the EC50 (pEC50) of 11.04.
Consider `CCCc1cc(N2CC[C@H](NCC3CC3)C2)nc(Nc2cccc(N)c2)n1` [Example 384], for which the pEC50 is 10.11.
Compound `CCCc1cc(N2CCC[C@H]2COC)nc(Nc2ccc(F)c(N)c2)n1` [Example 365] had a pEC50 of 10.57.
Compound `CCCCc1cc(N2CC[C@H](NC)C2)nc(Nc2ccc(F)c(C(F)(F)F)c2)n1` [Example 454] had a pEC50 of 10.85.
`CCCc1cc(N2CC[C@H](CNC(=O)OC(C)(C)C)C2)nc(Nc2cccc(C#N)c2)n1` [Example 56, (R)-tert-butyl{1-[2-(3-cyanophenylamino)-6-propylpyrimidin-4-yl]pyrrolidin-3-yl}methylcarbamate] had a pEC50 of 9.51.
For the compound `CCCCN[C@H]1CCN(c2cc(CCC)nc(Nc3cccc(C#N)c3)n2)C1` [Example 116, (S)-3-{4-[3-(butylamino)pyrrolidin-1-yl]-6-propylpyrimidin-2-ylamino}benzonitrile], the pEC50 was 11.46.
As for `CCCc1cc(N2CCCC2C)nc(Nc2ccc3cc[nH]c3c2)n1` (stereo not drawn) [Example 190], the pEC50 was 10.30.
`CCCc1cc(N2CCC[C@H]2C)nc(Nc2ccc(N)c(C#N)c2)n1` [Example 327] showed a pEC50 of 10.60.
Take `CCCc1cc(N2CC[C@H](NC)C2)nc(Nc2ccc(N)c([N+](=O)[O-])c2)n1` [Example 175]: the pEC50 was 9.64.
Then `CCCc1cc(N2CCC[C@H]2COC)nc(Nc2ccc(C)c(N)c2)n1` [Example 366], with 10.11; and `CCCc1cc(N2CC[C@H](NC(=O)Cc3cccs3)C2)nc(Nc2ccc(C)c(C#N)c2)n1` [Example 430], with 10.57.
For the compound `CCCc1cc(N2CC[C@H](NCC)C2)nc(Nc2ccc(N)c(C#N)c2)n1` [Example 489], the pEC50 was 11.82.
`CCCc1cc(N2CC[C@H](NC)C2)nc(Nc2ccc(F)c(N)c2)n1` [Example 484] showed a pEC50 of 11.24.
Take `CCCc1cc(N2CC[C@H](NC(C)=O)C2)nc(Nc2cccc(SC)c2)n1` [Example 242]: the pEC50 is 10.24.
As to `CCCCc1cc(N2CC[C@H](NC)C2)nc(Nc2ccc(N)c(C#N)c2)n1` [Example 447], the pEC50 is 11.64.
In the case of `CCCc1cc(N2CCC(NC(C)=O)C2)nc(Nc2ccc3cc[nH]c3c2)n1` (stereo not drawn) [Example 192], the pEC50 was 10.70.
`CCCCc1cc(N2CC[C@H](NCC)C2)nc(Nc2ccc(C)c(C#N)c2)n1` [Example 460] showed a pEC50 of 11.72.
`CCCCc1cc(N2CC[C@H](NCC3CC3)C2)nc(Nc2cccc(C#N)c2)n1` [Example 237] gave a pEC50 of 11.89.
Next, `CCCc1cc(N2CCC[C@H]2C)nc(Nc2ccc(N)c([N+](=O)[O-])c2)n1` [Example 328, (R)—N^1-[4-(2-methylpyrrolidin-1-yl)-6-propylpyrimidin-2-yl]-3-nitrobenzene-1,4-diamine]: 10.77.
As to `CCCc1cc(N2CC[C@H](NC3CCC3)C2)nc(Nc2ccc(C)c(C#N)c2)n1` [Example 419], the pEC50 was 11.49.
`CCCc1cc(N2CCC[C@H]2CO)nc(Nc2ccc(C)c(N)c2)n1` [Example 399] showed a pEC50 of 9.89.
Regarding `CCCc1cc(N2CCC[C@H]2COC)nc(Nc2ccc(C)c(C#N)c2)n1` [Example 44, (S)-5-{4-[2-(methoxymethyl)pyrrolidin-1-yl]-6-propylpyrimidin-2-ylamino}-2-methylbenzonitrile], the pEC50 is 10.66.
With `CCCc1cc(N2CCC[C@H]2C)nc(Nc2ccc(F)c([N+](=O)[O-])c2)n1` [Example 320, (R)—N-(4-fluoro-3-nitrophenyl)-4-(2-methylpyrrolidin-1-yl)-6-propylpyrimidin-2-amine], the pEC50 is 10.39.
`CCCc1cc(N2CCC[C@H]2C)nc(Nc2ccc3c(c2)N(C(C)=O)CC3)n1` [Example 329] gave a pEC50 of 9.74.
With `CCCc1cc(N2CCC[C@H]2C)nc(Nc2ccc(Cl)c(N)c2)n1` [Example 332], the pEC50 was 10.34.
In turn, `CCCc1cc(N2CC[C@H](NC(=O)CO)C2)nc(Nc2ccc(F)c(C#N)c2)n1` [Example 473] showed a pEC50 of 10.66.
Turning to `CCCc1cc(N2CC[C@H](NC(C)=O)C2)nc(Nc2ccc3c(C)cc(=O)oc3c2)n1` [Example 245], the pEC50 was 10.28.
`CCCc1cc(N2CC[C@H](NC(C)=O)C2)nc(Nc2ccc(F)cc2)n1` [Example 17, (S)-N-{1-[2-(4-fluorophenylamino)-6-propylpyrimidin-4-yl]pyrrolidin-3-yl}acetamide] gave a pEC50 of 9.46.
`CCCCCC(=O)N[C@H]1CCN(c2cc(CCC)nc(Nc3cccc(C#N)c3)n2)C1` [Example 150, (S)-N-{1-[2-(3-cyanophenylamino)-6-propylpyrimidin-4-yl]pyrrolidin-3-yl}hexanamide] showed a pEC50 of 9.39.
`CCCCc1cc(N2CC[C@H](N(CC)CC)C2)nc(Nc2ccc(C)c(C#N)c2)n1` [Example 239] showed a pEC50 of 9.94.
For `CCCc1cc(N2CC[C@H](NC3CN(C(=O)OC(C)(C)C)C3)C2)nc(Nc2cccc(C#N)c2)n1` [Example 144, (S)-tert-butyl 3-{1-[2-(3-cyanophenylamino)-6-propylpyrimidin-4-yl]pyrrolidin-3-ylamino}azetidine-1-carboxylate], the pEC50 is 10.44.
Then `CCCc1cc(N2CC[C@H](NC(C)=O)C2)nc(Nc2ccc(C)c(C#N)c2)n1` [Example 252, (S)—N-{1-[2-(3-cyano-4-methylphenylamino)-6-propylpyrimidin-4-yl]pyrrolidin-3-yl}acetamide], with 11.28.
